Assay: UV absorption spectrum in ethanol
Format: physicochemical
Conditions: for UV E1% / UV εmax: at λmax

Structure (SMILES) | UV λmax | UV E1% | UV εmax
CCOC(=O)/C(=C/C=C(c1ccccc1)c1ccccc1)C(=O)OC[Si](C)(C)C [Example 2] | 334 nm | 692 | 28 270
C[Si](C)(C)COC(=O)/C(C#N)=C\C=C(c1ccccc1)c1ccccc1 [Example 3, monotrimethylsilanylmethyl ester of 2-cyano-5,5-diphenyl-2,4-pentadienoic acid] | 360 nm | 800 | 28 880
C[Si](C)(C)COC(=O)C(=CC=C(c1ccccc1)c1ccccc1)C(=O)OC[Si](C)(C)C [Example 1] | 333 nm | 614 | 28 610

Source: patent publication US7432386B2, “Diarylbutadiene-substituted methyltrialkylsilanes and photoprotective compositions comprised thereof” (L'Oreal, priority 2003, dated 2008)
